According to EP0174371B1, “TRIPHENYLMETHANE DERIVATIVES AND METHOD FOR DETERMINING OXIDATIVE SUBSTANCES USING THEM AS COLOR-FORMING COMPONENT” (WAKO PURE CHEMICAL INDUSTRIES, LTD., priority 1984, dated 1985):
In brackets after ≈: the same amount, converted by molar mass.

Experiments:
[1] = Solubility in water around the neutral pH range; settings: for solubility in water: pH 7.2 (around the neutral range); for solubility in water relative to BSPM: pH 7.2, multiple of the solubility of BSPM
[2] = tested on: H202-POD (peroxidase) system; assay: Oxidation coloring in the H2O2-peroxidase system; settings: statement in words
Description: The triphenyl methane derivatives according to the present invention in which two groups ―O(CH2)nSO3M (M and n are the same meanings as given above), are present, are unexpectedly different from the triphenyl methane derivative in which two sulfonic acid groups are directly bonded to the benzene nucleus, since they are excellent in oxidation coloring in the H202-POD system, and can be satisfactorily used for the purpose aimed at by the present invention.

physchem = settings: pH 7.2, aqueous buffer
[3] = known triphenyl methane type leuco coloring matters, statement in words; cited from earlier work

| Compound | solubility in water [1] | solubility in water relative to BSPM [1] | solubility in water in the neutral pH-range [3] | further results |
| --- | --- | --- | --- | --- |
| CCN(CC)c1ccc(C(c2ccc(OCCCS(=O)(=O)O)cc2)c2ccc(N(CC)CC)cc2)cc1 [BSproPM, bis(4-N,N-diethylaminophenyl)-4-sodium sulfopropoxyphenyl methane] | 5000 µM | 10 times |  |  |
| CCN(CC)c1ccc(C(c2ccc(N(CC)CC)cc2)c2ccc(S(=O)(=O)O)cc2S(=O)(=O)O)cc1 [bis(4-diethylaminopheny)-2,4-disulfophenyl methane] |  |  |  | oxidation coloring in the H202-POD system [2]: no coloring takes place |
| CCN(CC)c1ccc(C(c2ccc(N(CC)CC)cc2)c2ccccc2S(=O)(=O)O)cc1 [BSPM, bis(4-diethylaminophenyl)-2-sulfophenyl methane] |  |  |  | solubility (physchem): 500 µM (≈ 233 µg/mL) |
| CCN(CC)c1ccc(C(c2ccc(N(CC)CC)cc2)c2ccc(OCCCS(=O)(=O)O)c(OCCCS(=O)(=O)O)c2)cc1 [BSdiproPM, bis(4-N,N-diethylaminophenyl)-3,4-disodium sulfopropoxyphenyl methane] | ≥ 15000 µM | not less than 30 times |  |  |
| CN(C)c1ccc(C(c2ccccc2)c2ccc(N(C)C)cc2)cc1 [leuco malachite green] |  |  | difficult to dissolve into water in the neutral pH-range |  |
| CN(C)c1ccc(C(c2ccc(N(C)C)cc2)c2ccc(N(C)C)cc2)cc1 [leucocrystal violet] |  |  | difficult to dissolve into water in the neutral pH-range |  |
